≈ marks a conversion by molar mass, not a printed value. Where two headings read alike, the source gives them in different places.
Experiments:
[1] = Ex vivo tobramycin plasma protein binding in mice; format: in vitro ADME; conditions: mouse plasma; for fraction unbound at 1 h: subcutaneous
Protocol: Escalating single doses of tobramycin (2.5, 5 and 10 mg/kg) were administered subcutaneously to determine tobramycin plasma protein binding. Triplicate pooled plasma and ultrafiltrate samples were collected at 1 h (5 mice per replicate, 15 mice per dose) and stored at −80°C until concentration determination. Whole blood was collected in K2EDTA tubes and then subsequently centrifuged at 4°C at 3000g for 10 minutes. Plasma was separated (total plasma) and 900 µL was added to an ultrafiltration device (Centrifree®, Merck Millipore Ltd, Ireland) and centrifuged using a fixed rotor at 10°C at 2000g for an additional 45 minutes to obtain protein free ultrafiltrate. The triplicate free and total tobramycin concentrations were averaged and then free fractions were calculated using the equation: free fraction = concentrationultrafiltrate/concentrationtotal plasma.
Mean percentages of protein binding (±standard deviation) were 27.1% (2.9%), 20.5% (9.3%) and 19.8% (1.5%) at the 1-h timepoint after receiving doses of 2.5, 5 and 10 mg/kg, respectively.

[2] = Plasma pharmacokinetics in the COMBINE murine neutropenic pneumonia model
Protocol: (§1) The model followed the COMBINE protocol with laboratory-specific detailed methods as follows.[6] Specific pathogen free CD-1, female mice 6–8 weeks old were acquired from Charles River Laboratories, Inc. (Raleigh, NC, USA). All animals were allowed to acclimatize for 72 h before any study procedures and were housed as groups of six at controlled room temperature in HEPA-filtered cages (Innovive, San Diego, CA, USA). Study rooms were maintained with diurnal cycles (12 h light/12 h dark) and food and water were provided ad libitum.
(§2) Neutropenia was achieved through 0.2 mL intraperitoneal (IP) administrations of cyclophosphamide 150 mg/kg on day minus 4 and an additional 100 mg/kg on day minus 1. A predictable degree of renal impairment was produced using 5 mg/kg of uranyl nitrate (Electron Microscopy Sciences, Hatfield, PA, USA) dissolved in sterile water administered as a 0.2 mL IP injection on day minus 3. […] Mice were anaesthetised using inhaled isoflurane, manually restrained upright and infected with 50 µL of bacterial suspension via the nares. Each bacterial inoculation suspension was used within 30 minutes of initial preparation.
(§3) The purpose of these studies was to establish HSRs in both plasma and ELF in the COMBINE murine neutropenic pneumonia model equivalent to clinical doses of meropenem (2 g every 8 h as 3 h infusion),[9] cefiderocol (2 g every 8 h as 3 h infusion)[10] and tobramycin (7 mg/kg as 0.5 h infusion)[11–13] based on unbound (free) exposures.
(§4) At predefined timepoints (shown in Figures 1–3), groups of six mice had blood sampled via retro-orbital bleeding (two time points, under anaesthesia with isoflurane 2%–3% v/v in 100% oxygen via inhalation) and/or cardiac puncture (one terminal time point). Proparacaine hydrochloride ophthalmic solution 0.5% was applied to the eye (1–2 drops) after blood sampling via retro-orbital bleeding. The volume of blood collected was 0.15 mL per sample via retro-orbital bleeding with subsequent fluid replacement using 0.2 mL normal saline given IP. Mice were euthanized by CO2 exposure before cardiac puncture. Following blood collection by cardiac puncture, but before cervical dislocation, bronchoalveolar lavage (BAL) fluid was collected from the mice at the same time points. A catheter was inserted into the trachea of the mice, and lungs were lavaged with four separate aliquots of 0.4 mL of normal saline. The BAL fluid was withdrawn immediately after injection and pooled for each animal. Pooled BAL was centrifuged for 10 min at 4°C and the supernatant was collected for analysis.
(§5) Drug concentrations in ELF were estimated by correcting the drug concentration in BAL fluid for the dilution with normal saline during lung lavage using the following formula: compoundELF = compoundBAL × (ureaplasma/ureaBAL), where compoundBAL is the measured drug concentration in the BAL fluid sample and ureaplasma and ureaBAL are the concentrations of urea in paired plasma and BAL fluid samples from each mouse, respectively. Owing to the lack of albumin in BAL fluid, total ELF concentrations were considered unbound.
(§6) Statistical outliers for each respective analyte were removed by the interquartile range method. Previously reported meropenem, cefiderocol and plazomicin (an aminoglycoside similar to tobramycin) plasma HSRs developed in alternative murine models were used as a baseline.[19],[20] Mathematical modifications were made to the baseline regimens as necessary to achieve translational exposures in the COMBINE model and repeat confirmatory PK studies were undertaken for both plasma and ELF.

[3] = ELF pharmacokinetics in the COMBINE murine neutropenic pneumonia model
Protocol: as §1, §2, §3, §4, §5, §6

[4] = clinical; conditions: human, in vivo
Protocol: as §3

[5] = tested on: K. pneumoniae CDC 851; set-up: method as in earlier work; conditions: cited from earlier work
[6] = set-up: method as in PMID 33371322, PMID 31724042, PMID 15107149; conditions: cited from earlier work
[7] = human, 7 mg/kg as 0.5 h infusion; cited from earlier work
[8] = human; population PK analysis; cited from earlier work
[9] = mouse plasma, best-fit one-compartment model
[10] = mouse ELF, best-fit one-compartment model

NC[C@H]1O[C@H](O[C@H]2[C@H](O)[C@@H](O[C@H]3O[C@H](CO)[C@@H](O)[C@H](N)[C@H]3O)[C@H](N)C[C@@H]2N)[C@H](N)C[C@@H]1O [Tobramycin, tobramycin]
Unbound fraction in plasma ([1]; average of 2.5, 5 and 10 mg/kg): 77.6% | fraction unbound at 1 h ([1]; 1 h after 2.5 mg/kg subcutaneously, ultrafiltration, read-out: Mean percentage of protein binding (±standard deviation) (converted)): 0.729 | fraction unbound at 1 h ([1]; 1 h after 5 mg/kg subcutaneously, ultrafiltration, read-out: Mean percentage of protein binding (±standard deviation) (converted)): 0.795 | fraction unbound at 1 h ([1]; 1 h after 10 mg/kg subcutaneously, ultrafiltration, read-out: Mean percentage of protein binding (±standard deviation) (converted)): 0.802 | fraction unbound at 1 h ([1]; average of 2.5, 5 and 10 mg/kg, read-out: Plasma protein binding, average across the three doses (converted)): 0.776 | k el ([2]; female, CD-1, mouse, plasma, sc): 8.61e-05 s⁻¹ | K a (absorption rate constant into central compartment) [2, 9]: 23.68 h⁻¹ | V plasma (volume of distribution in central compartment) [2, 9]: 0.37 L/kg | plasma fAUC0-24 ([2]; murine, plasma HSR): 103000 ng·h/mL | plasma fCmax ([2]; murine, plasma HSR): 17.7 mg/L | k el ([3]; female, CD-1, mouse, epithelial lining fluid (ELF), sc): 9.72e-05 s⁻¹ | K a-ELF (absorption rate constant into ELF compartment) [3, 10]: 1.74 h⁻¹ | V ELF (volume of distribution in ELF compartment) [3, 10]: 0.79 L/kg | ELF fAUC0-24 ([3]; murine, ELF HSR): 76000 ng·h/mL | ELF fCmax ([3]; murine, ELF HSR): 6.6 mg/L | Kp [4]: 0.69 | ELF fAUC0-24 ([4]; 7 mg/kg): 79000 ng·h/mL | ELF fCmax ([4]; 7 mg/kg): 6.8 mg/L | MIC [5]: 16 µg/mL (≈ 34.2 µM) | Human plasma protein binding [6]: 10% | plasma fAUC0-24 [7]: 103000 ng·h/mL | plasma fCmax [7]: 18.3 mg/L | AUCELF/AUCplasma penetration ratio [8]: 0.64
